Patent publication US20200131132A1, “FARNESOID X RECEPTOR AGONISTS AND USES THEREOF” (Metacrine, Inc., priority 2017, published 2020)

Biological target: T1, hFXR (Homo sapiens, UniProt Q96RI1)
T1 construct: expressed in transfected cells; host or cells: CV-1 cells
T1 sequence (Q96RI1 1-486): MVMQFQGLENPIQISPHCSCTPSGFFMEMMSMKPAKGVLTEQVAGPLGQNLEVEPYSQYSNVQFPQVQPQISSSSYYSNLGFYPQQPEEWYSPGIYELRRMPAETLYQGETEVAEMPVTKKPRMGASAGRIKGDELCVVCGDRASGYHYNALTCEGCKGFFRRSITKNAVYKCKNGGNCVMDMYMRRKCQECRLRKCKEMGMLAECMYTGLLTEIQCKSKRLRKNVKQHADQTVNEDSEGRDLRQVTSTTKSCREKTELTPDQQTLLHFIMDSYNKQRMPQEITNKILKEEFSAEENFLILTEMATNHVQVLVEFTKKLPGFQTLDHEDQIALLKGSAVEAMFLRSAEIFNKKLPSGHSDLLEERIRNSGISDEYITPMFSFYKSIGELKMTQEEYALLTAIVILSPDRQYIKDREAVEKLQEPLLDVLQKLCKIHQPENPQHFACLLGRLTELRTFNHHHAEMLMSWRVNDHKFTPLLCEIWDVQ
T1 sequence (P19793 1-462 partner): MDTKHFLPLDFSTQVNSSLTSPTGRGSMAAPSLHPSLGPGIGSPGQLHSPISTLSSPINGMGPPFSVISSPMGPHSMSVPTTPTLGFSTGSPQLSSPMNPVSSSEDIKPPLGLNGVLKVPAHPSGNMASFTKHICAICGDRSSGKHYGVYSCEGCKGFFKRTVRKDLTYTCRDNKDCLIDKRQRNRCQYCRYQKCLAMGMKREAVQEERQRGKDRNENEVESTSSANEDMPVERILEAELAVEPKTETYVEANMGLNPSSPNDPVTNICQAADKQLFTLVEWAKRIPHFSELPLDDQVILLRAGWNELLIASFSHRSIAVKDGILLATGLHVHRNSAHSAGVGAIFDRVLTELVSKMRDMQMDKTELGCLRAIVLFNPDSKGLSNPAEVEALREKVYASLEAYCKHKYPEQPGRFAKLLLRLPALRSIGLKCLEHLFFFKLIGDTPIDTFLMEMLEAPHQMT
Experiment: In Vitro FXR Assay (TK)
Assay type: cell-based
Conditions: CV-1 cells transfected with hFXR, hRXR, TK-ECRE-luc and pCMX-YFP; compounds incubated 18 hrs; luminescence
Method in brief: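 Cells are seeded in charcoal double-stripped FBS medium, transfected overnight with FXR/RXR expression and ECRE-driven luciferase reporter plasmids, then treated with serially diluted compounds for 18 h. Lysates are measured for luciferase light output.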

COc1ccc(-c2ccc(CN(C(=O)CC(C)(C)C)c3nccc4cc(N5CC(O)C5)ccc34)cc2)cc1C [Compound 6.03, N-(6-(3-Hydroxyazetidin-1-yl)isoquinolin-1-yl)-N-((4′-methoxy-3′-methyl-[1,1′-biphenyl]-4-yl)methyl)-3,3-dimethylbutanamide] and COc1ccc(-c2ccc(CN(C(=O)CC(C)(C)C)c3nccc4cc(N5CCC(O)C5)ccc34)cc2)cc1C (stereo not shown) [Compound 6, N-(6-(3-Hydroxypyrrolidin-1-yl)isoquinolin-1-yl)-N-((4′-methoxy-3′-methyl-[1,1′-biphenyl]-4-yl)methyl)-3,3-dimethylbutanamide] cannot be ordered by EC50: no more than 1000 nM for the first, no more than 1000 nM for the second.

Compared with COc1ccc(-c2ccc(CN(C(=O)CC(C)(C)C)c3nccc4c(C#N)cccc34)cc2)cc1C [Compound 13.02, N-(5-Cyanoisoquinolin-1-yl)-N-((4′-methoxy-3′-methyl-[1,1′-biphenyl]-4-yl)methyl)-3,3-dimethylbutanamide], COc1ccc(-c2ccc(CN(C(=O)CC(C)(C)C)c3nccc4cccnc34)cc2)cc1C [Compound 4.09, N-((4′-Methoxy-3′-methyl-[1,1′-biphenyl]-4-yl)methyl)-3,3-dimethyl-N-(1,7-naphthyridin-8-yl)butanamide] is lower in EC50: greater than 10000 nM for the first, no more than 1000 nM for the second. The second is the more potent here.

COc1ccc(-c2ccc(CN(C(=O)CC(C)(C)C)c3nccc4ccsc34)cc2)cc1C [Compound 4.04, N-((4′-Methoxy-3′-methyl-[1,1′-biphenyl]-4-yl)methyl)-3,3-dimethyl-N-(thieno[2,3-c]pyridine-7-yl)butanamide] and COc1ccc(-c2ccc(CN(C(=O)CC(C)(C)C)c3nccc4cc(/C=C/CO)ccc34)cc2)cc1C [Compound 23, (E)-N-(6-(3-Hydroxyprop-1-en-1-yl)isoquinolin-1-yl)-N-((4′-methoxy-3′-methyl-[1,1′-biphenyl]-4-yl)methyl)-3,3-dimethylbutanamide] cannot be ordered by EC50: no more than 1000 nM for the first, no more than 1000 nM for the second.

Compared with COc1ccc(-c2ccc(CN(C(=O)CC(C)(C)C)c3nccc4cc(C(=O)N(C)C)ccc34)cc2)cc1C [Compound 19, 1-(N-((4′-Methoxy-3′-methyl-[1,1′-biphenyl]-4-yl)methyl)-3,3-dimethylbutanamido)-N,N-dimethylisoquinoline-6-carboxamide], COc1ccc(-c2ccc(CN(C(=O)CC(C)(C)C)c3nccc4cc(OC5CN(C)C5)ccc34)cc2)cc1C [Compound 30, N-((4′-Methoxy-3′-methyl-[1,1′-biphenyl]-4-yl)methyl)-3,3-dimethyl-N-(6-((1-methylazetidin-3-yl)oxy)isoquinolin-1-yl)butanamide] is higher in EC50: no more than 1000 nM for the first, greater than 10000 nM for the second. The first is the more potent here.

COc1ccc(-c2ccc(CN(C(=O)CC(C)(C)C)c3nccc4cc(N5CCN(C)CC5)ccc34)cc2)cc1C [Compound 6.05, N-((4′-Methoxy-3′-methyl-[1,1′-biphenyl]-4-yl)methyl)-3,3-dimethyl-N-(6-(4-methylpiperazin-1-yl)isoquinolin-1-yl)butanamide] and COc1ccc(-c2ccc(CN(C(=O)CC(C)(C)C)c3nccc4cc(N5CCNCC5)ccc34)cc2)cc1C [Compound 6.09, N-((4′-Methoxy-3′-methyl-[1,1′-biphenyl]-4-yl)methyl)-3,3-dimethyl-N-(6-(piperazin-1-yl)isoquinolin-1-yl)butanamide] fall in the same range of EC50: 1000 to 10000 nM for the first, 1000 to 10000 nM for the second.

COc1ccc(-c2ccc(CN(C(=O)CC(C)(C)C)c3nccc4cc(OCC[S+](C)[O-])ccc34)cc2)cc1C (stereo not shown) [Compound 33, N-((4′-Methoxy-3′-methyl-[1,1′-biphenyl]-4-yl)methyl)-3,3-dimethyl-N-(6-(2-(methylsulfinyl)ethoxy)isoquinolin-1-yl)butanamide] and COc1ccc(-c2ccc(CN(C(=O)CC(C)(C)C)c3nccc4cc(OCCS(C)(=O)=O)ccc34)cc2)cc1C [Compound 32, N-((4′-Methoxy-3′-methyl-[1,1′-biphenyl]-4-yl)methyl)-3,3-dimethyl-N-(6-(2-(methylsulfonyl)ethoxy)isoquinolin-1-yl)butanamide] cannot be ordered by EC50: no more than 1000 nM for the first, no more than 1000 nM for the second.

Compared with COc1ccc2c(N(C[C@H]3CC[C@H](c4ccc(OC)c(C)c4)CC3)C(=O)CC(C)(C)C)nccc2c1 [Compound 1], COc1ccc(-c2ccc(CN(C(=O)CC(C)(C)C)c3nccc4cc(OC5CCNCC5)ccc34)cc2)cc1C [Compound 28, N-((4′-Methoxy-3′-methyl-[1,1′-biphenyl]-4-yl)methyl)-3,3-dimethyl-N-(6-(piperidin-4-yloxy)isoquinolin-1-yl)butanamide] is higher in EC50: no more than 1000 nM for the first, greater than 10000 nM for the second.

COc1ccc(-c2ccc(CN(C(=O)CC(C)(C)C)c3nccc4c3CCCC4)cc2)cc1C [Compound 4.03, N-((4′-Methoxy-3′-methyl-[1,1′-biphenyl]-4-yl)methyl)-3,3-dimethyl-N-(5,6,7,8-tetrahydroisoquinolin-1-yl)butanamide] and COc1ncc(-c2ccc3c(N(Cc4ccc(-c5ccc(OC)c(C)c5)cc4)C(=O)CC(C)(C)C)nccc3c2)s1 [Compound 15, N-((4′-Methoxy-3′-methyl-[1,1′-biphenyl]-4-yl)methyl)-N-(6-(2-methoxythiazol-5-yl)isoquinolin-1-yl)-3,3-dimethylbutanamide] fall in the same range of EC50: 1000 to 10000 nM for the first, 1000 to 10000 nM for the second.
